Experimental data as given in PubChem BioAssay (NCI).
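96-well plates; 48 h exposure; 5 concentrations. Endpoints by linear interpolation between flanking doses. Not reached: highest tested concentration assigned. GI50: concentration for 50% inhibition of growth. TGI marks complete inhibition of growth.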

Columns and labels:
Assay in all cases: inhibition of tumour cell growth, NCI panel, 48 h
[1] = test system: RPMI-8226 leukemia
[2] = test system: 786-0 renal
[3] = test system: HCT-116 colon
[4] = test system: SR leukemia
[5] = test system: SN12C renal
[6] = test system: U251 CNS
[7] = test system: MDA-MB-435
[8] = test system: PC-3 prostate

| Compound | GI50 [1] | TGI [1] | GI50 [2] | TGI [2] | GI50 [3] | TGI [3] | GI50 [4] | TGI [4] | GI50 [5] | TGI [5] | GI50 [6] | TGI [6] | GI50 [7] | TGI [7] | GI50 [8] | TGI [8] |
| --- | --- | --- | --- | --- | --- | --- | --- | --- | --- | --- | --- | --- | --- | --- | --- | --- |
| COc1cc2cc(Oc3ccc(NC(=O)Nc4cccc(C(F)(F)F)c4)cc3)c(C)nc2cc1OC | 1.05 µM | 2.96 µM | 1.74 µM | 9.24 µM | 1.46 µM | 5.84 µM | 1.17 µM | 3.33 µM | 2.06 µM | 16.3 µM | 1.56 µM | 5.61 µM | 1.63 µM | 10.1 µM | 1.39 µM | 5.49 µM |
| NC(N)=N/N=C\c1cccc(OCc2ccccc2)c1 | 2.33 µM | 8.17 µM | 3.54 µM | 12.6 µM | 1.84 µM | 3.96 µM |  |  | 4.33 µM | 17.6 µM | 1.87 µM | 4.12 µM | 1.97 µM | 4.56 µM | 11.2 µM | 25.1 µM |
| CCn1c(CN2CCN(Cc3ccccc3)CC2)nc2cc(NC(=O)c3cccs3)ccc21 | 15.8 µM | 46.1 µM | 21.4 µM | 66.1 µM | 14.4 µM | 38.7 µM | 12.6 µM | 39.1 µM | 23.5 µM | > 100 µM | 13.6 µM | 32.3 µM | 14.8 µM | 28.9 µM | 20.8 µM | > 100 µM |
| O=NNc1ccc(S(=O)(=O)c2ccccc2)cn1 |  |  |  | > 100 µM |  | > 100 µM |  | > 100 µM |  | > 100 µM |  | > 100 µM |  |  |  | > 100 µM |
| O=c1nc2n(-c3ccc(Cl)cc3)c3ccc([N+](=O)[O-])cc3cc-2c(=O)[nH]1 | 12.3 µM | 47.7 µM | 17.9 µM | 37.1 µM | 16.1 µM | 33.2 µM |  |  | 14.5 µM | 44.5 µM | 8.15 µM | 88.7 µM | 15.8 µM | 37.7 µM | 23.5 µM | 78.5 µM |
| O=C(Nc1cccc(Cl)c1)c1ccc(NC2=C(Cl)C(=O)N(Cc3ccccc3)C2=O)cc1 |  |  | 8.61 µM | 19.7 µM | 6.31 µM | 17.2 µM | 1.39 µM | 3.82 µM | 7.77 µM | 23 µM | 15.5 µM | > 48.1 µM | 9.43 µM | 33.6 µM | 9.48 µM | 24.1 µM |
| CC(=O)[CH-]C(=O)c1ccccc1.CC(=O)[CH-]C(=O)c1ccccc1.[Eu+3].[OH-].[OH3+] | > 100 µM | > 100 µM | > 100 µM | > 100 µM | > 100 µM | > 100 µM |  |  | > 100 µM | > 100 µM | > 100 µM | > 100 µM |  |  |  |  |
| O=C1CCCCCCCC/C=C\CC(c2ccco2)O1 (stereo not drawn) | 43.2 µM | > 100 µM | 21.4 µM | 70.3 µM | 15.1 µM | 29.5 µM |  |  | 22.2 µM | 69.9 µM | 19.5 µM | 48.2 µM | 51.5 µM | > 100 µM | 36.3 µM | > 100 µM |
| CC[C@H](Nc1nc(NCc2cnc(C)cc2C)c2ncn(C(C)C)c2n1)[C@@H](C)O | 0.308 µM | 14.2 µM | 0.361 µM | > 100 µM | 0.314 µM | > 100 µM |  |  | 0.351 µM | > 100 µM | 0.333 µM | > 100 µM | 0.362 µM | 10.8 µM | 0.314 µM | > 100 µM |
| COc1ccc(-n2nnnc2-c2c[nH]c3c(F)cc(F)cc23)cc1 | > 100 µM | > 100 µM | 31.5 µM | > 100 µM | > 100 µM | > 100 µM |  |  | 86.3 µM | > 100 µM | 32.2 µM | > 100 µM | > 100 µM | > 100 µM | > 100 µM | > 100 µM |
| CC(=O)[CH-]C(=O)c1ccccc1.CC(=O)[CH-]C(=O)c1ccccc1.CC1(C)C2CCC1(C)C([O-])C2.CC1(C)C2CCC1(C)C([O-])C2.[Ti+4] | 25 µM | > 100 µM | 25.9 µM | > 100 µM | 34.9 µM | > 100 µM |  |  | 27.9 µM | > 100 µM | 40.4 µM | > 100 µM |  |  |  |  |
| CC(=O)[CH-]C(=O)c1ccccc1.CC(=O)[CH-]C(=O)c1ccccc1.CC(C)CCCC(C)[C@H]1CCC2[C@@H]3CC=C4C[C@@H]([O-])CC[C@]4(C)C3CC[C@@]21C.CC[O-].[Ti+4] (stereo partly drawn) | 18.5 µM | 52.2 µM | 35.2 µM | > 100 µM | 45.7 µM | > 100 µM |  |  | 94.5 µM | > 100 µM | 48.7 µM | > 100 µM |  |  |  |  |
| O=C(CNc1ccc2c(c1)C(=O)c1ccccc1C2=O)Nc1ccc2c(c1)C(=O)c1ccccc1C2=O | 0.957 µM | 3.46 µM | 0.451 µM | 1.69 µM | 0.24 µM | 0.711 µM |  |  | 0.293 µM | 1 µM | 0.449 µM | 1.57 µM | 0.85 µM | 2.29 µM | 1.29 µM | 3.48 µM |
| O=c1ccn(C2OC(CO/N=C/c3ccc(O)c(O)c3O)C(O)C2O)c(=O)[nH]1 (stereo not drawn) | 49.5 µM | > 100 µM | > 100 µM | > 100 µM | 20.6 µM | 58.7 µM |  |  | 20.1 µM | 38.7 µM | 16.8 µM | 30.4 µM | 15.8 µM | 31.3 µM | 25.1 µM | 86.9 µM |
| O=C1c2cc3c(cc2-c2c1c1ccc(Cl)cc1c(=O)n2CCCNCCO)OCO3 | 0.145 µM | 3.27 µM | 0.119 µM | 0.278 µM | 0.104 µM | 0.588 µM |  |  | 1.08 µM | 2.81 µM | 0.0403 µM | 1.4 µM | 1.03 µM | 2.49 µM | 1.07 µM | 2.55 µM |
| Cc1ccc(-n2c3c(c4c(CN(C)C)c(O)ccc42)CCc2ccccc2C3=O)cc1 | 11 µM | 30.5 µM | 16.9 µM | 33.3 µM | 14.4 µM | 27.8 µM |  |  | 16.3 µM | 30.9 µM | 15.6 µM | 30.5 µM | 15.2 µM | 30.4 µM | 17.5 µM | 38.4 µM |
| CCC/C(=N/N=C(N)N)c1ccc(NC(=O)c2cc3cc(OC)ccc3[nH]2)cc1 | 2.13 µM | 5.01 µM | 3.61 µM | 29.2 µM |  |  |  |  | 14.1 µM | 33.7 µM | 6.35 µM | 25.1 µM | 3.81 µM | 21.7 µM |  |  |
